Experimental data published in article PMC5342230, “ITC-derived binding affinity may be biased due to titrant (nano)-aggregation. Binding of halogenated benzotriazoles to the catalytic domain of human protein kinase CK2” (PLoS ONE, 2017).
≈ marks a conversion by molar mass, not a printed value. Where “and” joins values, the source holds several entries; their conditions need not be identical. Equal entries are not always repeated. Marks after values point to notes of the source that are not given here.

Assays:
[1] = target: T1, catalytic subunit of human protein kinase CK2 (hCK2α) (Homo sapiens, UniProt P68400); assay: Microscale Thermophoresis (MST), global fit of two independent binding sites; settings: for Kd: global fit of 6 pseudo-titrations
T1 construct: made in house
T1 sequence (P68400 whole entry): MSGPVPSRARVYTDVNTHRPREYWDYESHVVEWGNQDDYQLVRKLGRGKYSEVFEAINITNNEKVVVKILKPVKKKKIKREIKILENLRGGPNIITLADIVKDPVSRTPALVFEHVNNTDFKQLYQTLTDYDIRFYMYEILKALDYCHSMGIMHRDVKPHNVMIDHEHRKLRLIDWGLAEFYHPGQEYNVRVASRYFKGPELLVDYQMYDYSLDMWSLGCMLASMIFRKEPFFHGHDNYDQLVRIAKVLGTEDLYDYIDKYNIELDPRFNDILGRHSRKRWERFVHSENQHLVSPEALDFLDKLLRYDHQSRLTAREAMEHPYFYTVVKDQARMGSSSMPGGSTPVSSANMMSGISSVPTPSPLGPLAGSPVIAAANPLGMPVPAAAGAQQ
Experimental: For MST experiments the protein sample additionally contained 5 mM β-mercaptoethanol to prevent sticking of protein to capillaries.
(§1) It should be stressed that the solvent composition of protein and ligand samples were always identical, so that the protein and ligand concentrations were the only variable factors.
The concentration of the labeled protein was kept constant at ~100 nM, while the ligand to protein concentration ratio was in the range of 0.01 to 10^5 nM. The samples were loaded into K002 Monolith™ NT.115 Standard Treated Capillaries, which after 10 min incubation time were analyzed using the Monolith NT.115 (NanoTemper Technologies). […] The numerical model was based on the cubic equation describing the concentration-dependent equilibrium of the apo form of the protein, free ligand, and their 1:1 and 1:2 complexes K1⋅K2⋅[L]^3+(K1+K1⋅K2⋅(2⋅P0-L0))⋅[L]^2+(1+K1⋅(P0-L0))⋅[L]=L0 (1) where P0 and L0 are the total concentrations of the protein and ligand, respectively; K1 and K2 are the […] for 1:1 and 1:2 complexes; and [L] is the concentration of the free ligand. The above equation can be resolved by roots against [L]
Concentrations of 1:1 and 1:2 complexes equal K1∙[P]∙[L] and K1∙K2∙[P]∙[L]^2, respectively. The model was implemented in Origin 9.0 package (www.originlab.com). Dissociation constants, K1 and K2, were estimated globally for a series of 6 MST pseudo-titration experiments, while contributions of three protein forms (i.e. apo, and 1:1 and 1:2 complexes) to the observed MST signal were fitted individually for each experiment (S1 Fig).

[2] = target: T1, catalytic subunit of human protein kinase CK2 (hCK2α); assay: ITC (hCK2α titrated with the ligand), one type of binding sites; settings: ligand as titrant, 25°C
Experimental: as §1
(§2) All ITC measurements were carried out at 25°C with the Nano ITC calorimeter (TA Instruments), using 250 rpm stirring and 1000 s delay between succeeding injections to the sample cell (950 μl). The first “technical” injection of a reduced volume (4–5 μl) was followed by 12 injections of 20 μl, however 16x15 μl or 10x25 μl schemes were occasionally used. The concentration of reagents varied depending on their affinities and experiment type. Thus 20–200 μM ligand solution was used as the titrant, but only 4–10 μM when placed in the sample cell. Accordingly, the sample cell was filled with 4–30 μM hCK2α solution, while 20–40 μM protein solution was placed in the syringe. For each ligand at least two titration experiments were done with different reagent concentrations, and occasionally with optimized injection volume. […] The resulting data were processed with the standard NanoAnalyze software package (version 3.5.0), assuming the model of one type of binding sites of the apparent stoichiometry close to 1:1. The automatically adjusted integration regions were used to minimize the impact of researcher’s arbitrary decision. The uncertainty of all determined values was estimated as the half-width of 67% confidence interval.

[3] = target: T1, catalytic subunit of human protein kinase CK2 (hCK2α); assay: Reverse ITC (ligand titrated with hCK2α), one type of binding sites; settings: protein as titrant, 25°C
Experimental: as §1, §2

[4] = target: T1, catalytic subunit of human protein kinase CK2 (hCK2α); assay: Reverse ITC with MST-derived Kd (two types of binding sites, Kd constrained); settings: for ΔG1 / ΔG2 / Kd: constrained based on the MST-derived binding affinities; for ΔH1 / ΔS1 / ΔH2 / ΔS2: reverse ITC, two-site model, Kd from MST; for ΔH1 / ΔS1: strong site; for ΔH2 / ΔS2: weak site
Experimental: All ITC measurements were carried out at 25°C with the Nano ITC calorimeter (TA Instruments), using 250 rpm stirring and 1000 s delay between succeeding injections to the sample cell (950 μl). The first “technical” injection of a reduced volume (4–5 μl) was followed by 12 injections of 20 μl, however 16x15 μl or 10x25 μl schemes were occasionally used. The concentration of reagents varied depending on their affinities and experiment type. Thus 20–200 μM ligand solution was used as the titrant, but only 4–10 μM when placed in the sample cell. Accordingly, the sample cell was filled with 4–30 μM hCK2α solution, while 20–40 μM protein solution was placed in the syringe. For each ligand at least two titration experiments were done with different reagent concentrations, and occasionally with optimized injection volume. […] The automatically adjusted integration regions were used to minimize the impact of researcher’s arbitrary decision. The uncertainty of all determined values was estimated as the half-width of 67% confidence interval.

[5] = target: T1, catalytic subunit of human protein kinase CK2 (hCK2α); assay: Reverse ITC (ligand titrated with hCK2α), one type of binding sites; settings: strong site
[6] = Dynamic light scattering (DLS/SLS) of ligand nano-aggregates; format: physicochemical; settings: for formation of nano-aggregates (DLS autocorrelation function): 1 mM ligand, 25°C, buffer with 2% DMSO
Experimental: All DLS experiments were carried out at 25°C with the DynaPro NanoStar 192-DPN apparatus (Wyatt Technology) equipped with 661 nm laser. The autocorrelation function for the light scattered by 5-BrBt or TBBt buffered solution placed in Eppendorf disposable cuvettes (50–2000 μl) was measured at various solute concentrations in the range of 0.5 μs– 0.1 s, and further decomposed to the distribution of particle size (ranging from 0.18 nm to 2.5 μm) using Dynamics software (Wyatt Technology, ver. 7.0.2.7). Solutions with 2% (v/v) DMSO content were prepared in 25 mM Tris-HCl (pH 8, 0.5 M NaCl) filtered with 0.22 μm pore size syringe filter. All samples were centrifuged (9000 g) for 3 minutes immediately before the experiment. For each sample a series of at least 30 repetitions, 10 s each, has been collected, and those with abnormally high SOS function and/or with highly fluctuating SLS signal were removed from the analysis. All remaining data have been averaged to obtain the autocorrelation function (ACF) of a reasonable quality. This procedure was found indispensable for diluted TBBt solutions, in which large aggregates have rarely scattered light crossing the laser beam. Consequently, extreme fluctuations of ACF precluded direct analysis of the time-evolution of TBBt aggregates. However, the raw SLS signal was found applicable to estimate the rate of aggregate disintegration.

[7] = UV-VIS spectroscopy, deviation from Lambert-Beer law (ligand aggregation); format: physicochemical
Experimental: The absorption spectra (200–500 nm) were collected at 25°C using Varian Cary 50 UV-VIS spectrophotometer equipped with 1 cm quartz cells. The initial buffer solution was manually titrated with the 851 μM TBBt solution to record spectra for increasing solute concentration. For each sample UV-VIS spectrum was collected four times, every 20 s including 15 s acquisition time, starting 5 s after solute dilution. The changes in the absorption spectrum of 40 μM TBBt sample, prepared just before the experiment, were additionally tracked for an hour to follow possible disintegration of soluble aggregates.

[8] = design: method as in http://www.sigmaaldrich.com/catalog/product/sigma/t0826; settings: ref http://www.sigmaaldrich.com/catalog/product/sigma/t0826; cited from earlier work
[9] = strong site, read-out: Kd1 (strong binding site)
[10] = weak site, read-out: Kd2 (weak binding site)

Row | ΔG1 ([1]; strong site) [kcal/mol] | Kd [1, 9] [nM] | ΔG2 ([1]; weak site) [kcal/mol] | Kd [1, 10] [nM] | Kd [2] [nM] | ΔG [2] [kcal/mol] | ΔH [2] [kcal/mol] | ΔS [2] [J/mol/K] | Kd [3] [nM] | ΔG [3] [kcal/mol] | ΔH [3] [kcal/mol] | ΔS [3] [J/mol/K] | ΔG1 [4] | ΔG2 [4] | Kd ([4]; read-out: Kd1) [nM] | Kd ([4]; read-out: Kd2) [nM] | ΔH1 [4] [kcal/mol] | ΔS1 [4] [J/mol/K] | ΔH2 [4] [kcal/mol] | ΔS2 [4] [J/mol/K] | SMILES | also measured
1 | -9.66 ± 0.17 | 83 ± 29 | -7.29 ± 0.17 | 4600 ± 1400 | 990 ± 270 | -8.2 ± 0.14 | -8.37 ± 0.48 | -2 ± 5 | 42 ± 17 | -10.1 ± 0.19 | -9.56 ± 0.24 | 9 ± 4 | -40.4 ^x kJ/mol | -30.5 ^x kJ/mol | 83 | 4600 | -10.5 ± 0.48 | -12 ± 9 | 0.48 ± 2.2 | 109 ± 31 | Brc1cc2[nH]nnc2c(Br)c1Br [4,5,6-Br3Bt, 4,5,6-tribromobenzotriazole] | entropic contribution to binding [5]: favorable entropic contribution
2 | -9.68 ± 0.14 | 81 ± 22 | -7.31 ± 0.072 | 4400 ± 500 | 1170 ± 270 | -8.1 ± 0.12 | -15.1 ± 0.48 | -97 ± 8 | 46 ± 10 | -10 ± 0.12 | -17 ± 0.48 | -98 ± 6 | -40.5 ^x kJ/mol | -30.6 ^x kJ/mol | 81 | 4400 | -18.6 ± 3.11 | -126 ± 43 | 2.63 ± 8.13 | 140 ± 114 | Brc1cc2nn[nH]c2cc1Br [5,6-Br2Bt, 5,6-dibromobenzotriazole] | –
3 | -9.01 ± 0.072 | 246 ± 36 | -7.1 ± 0.096 | 6300 ± 1000 | 310 ± 89 | -8.87 ± 0.14 | -16.3 ± 0.72 | -102 ± 9 | 294 ± 73 | -8.91 ± 0.12 | -16.7 ± 0.72 | -110 ± 10 | -37.7 ^x kJ/mol | -29.7 ^x kJ/mol | 246 | 6300 | -17.4 ± 1.2 | -118 ± 15 | 1.7 ± 5.5 | 123 ± 77 | Brc1ccc2nn[nH]c2c1 [5-BrBt] | formation of nano-aggregates (DLS autocorrelation function) [6]: no such effect was observed; plot of concentration versus absorbance (Lambert-Beer law) ([7]; control experiment): remained linear
4 | – | – | – | – | – | – | – | – | – | – | – | – | – | – | – | – | – | – | – | – | Brc1c(Br)c(Br)c2[nH]nnc2c1Br [TBBt, tetrabromobenzotriazole] | formation of nano-aggregates (DLS autocorrelation function) [6]: forms nano-aggregates; radius of nano-aggregates ([6]; DLS, 1 mM down to 20 μM): ~ 100 nm and 100 nm; τ, decay of the aggregate population (raw SLS signal) ([6]; after rapid dilution of 500 μM sample): 460 ± 40 s; τ, increase of population of the monomeric form (absorption at 291 nm) ([7]; 40 μM solution, tracked for an hour): 670 ± 40 s; upper limit of ligand concentration at which monomeric form predominates ([7]; UV absorbance, deviation from Lambert-Beer law): 20 to 30 µM; solubility in pure DMSO [8]: 65 mM (≈ 28.3 mg/mL)
